Assays:
Format in all cases: functional
Oryctolagus cuniculus = species on record: Oryctolagus cuniculus; assay: In vitro inhibition of platelet activating factor induced platelet aggregation in rabbit platelet rich plasma.
Thromboxane-A synthase = target: T1, Thromboxane-A synthase (Homo sapiens, UniProt P24557); assay: In vitro inhibition of TXB2 production by incubating prostaglandin H2 with human platelet microsomes.
T1 sequence (P24557 whole entry): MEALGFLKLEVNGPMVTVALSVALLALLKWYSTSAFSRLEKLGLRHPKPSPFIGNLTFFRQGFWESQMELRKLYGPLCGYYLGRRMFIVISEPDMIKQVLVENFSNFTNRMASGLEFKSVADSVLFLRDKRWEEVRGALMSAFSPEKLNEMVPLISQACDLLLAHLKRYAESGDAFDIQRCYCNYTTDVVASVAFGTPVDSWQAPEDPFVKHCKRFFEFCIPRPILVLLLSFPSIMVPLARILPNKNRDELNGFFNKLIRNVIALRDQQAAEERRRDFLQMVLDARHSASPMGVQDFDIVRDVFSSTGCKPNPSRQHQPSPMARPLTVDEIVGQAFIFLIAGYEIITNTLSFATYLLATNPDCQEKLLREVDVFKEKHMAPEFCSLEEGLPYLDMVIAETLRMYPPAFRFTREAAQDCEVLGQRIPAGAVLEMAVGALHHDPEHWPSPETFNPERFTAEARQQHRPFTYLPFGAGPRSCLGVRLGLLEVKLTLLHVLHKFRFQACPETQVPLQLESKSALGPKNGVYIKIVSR

Mus musculus = species on record: Mus musculus; assay: Ex vivo antagonistic activity towards platelet activating factor was assessed in mouse by using PAF-induced death assay

IC50 (Oryctolagus cuniculus) | IC50 (Thromboxane-A synthase) | SMILES | ED50 (Mus musculus)
29 nM | – | CCOC(=O)C1=C(c2ccc(-n3c(C)nc4cnccc43)cc2)NC(C)=C(C(=O)Nc2ccccn2)C1c1ccccc1Cl (stereo not given) | –
– | 1 nM | CCOC(=O)CCCCO/N=C(/c1ccccc1)c1cccnc1 | –
> 1000 nM | 21 nM | CCOC(=O)CCCCO/N=C(\c1ccc(NC(=O)C2CSC(c3cccnc3)N2)cc1)c1cccnc1 (stereo not given) | –
610 nM | 44 nM | CCOC(=O)CCCCO/N=C(\c1ccc(C(=O)N2CCN(C(=O)C3CSC(c4cccnc4)N3)CC2)cc1)c1cccnc1 (stereo not given) | –
280 nM | 72 nM | CCOC(=O)CCCCO/N=C(\c1ccc(CN2CCN(C(=O)C3CSC(c4cccnc4)N3)CC2)cc1)c1cccnc1 (stereo not given) | –
480 nM | 52 nM | CCOC(=O)CCCCO/N=C(/c1cccnc1)c1cccc(C(=O)N2CCN(C(=O)C3CSC(c4cccnc4)N3)CC2)c1 (stereo not given) | –
200 nM | 88 nM | CCOC(=O)CCCCO/N=C(\c1cccnc1)c1cccc(CN2CCN(C(=O)C3CSC(c4cccnc4)N3)CC2)c1 (stereo not given) | –
68 nM | 5.8 nM | CCOC(=O)CCCCO/N=C(\c1cccnc1)c1cccc(CNS(=O)(=O)c2ccc(Cn3c(C)nc4cnccc43)cc2)c1 | –
550 nM | 3.6 nM | CCOC(=O)CCCCO/N=C(\c1ccc(NC(=O)c2ccn3c2CSC3c2cccnc2)cc1)c1cccnc1 (stereo not given) | –
> 1000 nM | 21 nM | CCOC(=O)CCCCO/N=C(\c1cccnc1)c1cccc(NC(=O)C2CSC(c3cccnc3)N2)c1 (stereo not given) | –
68 nM | 4.7 nM | CCOC(=O)CCCCO/N=C(/c1cccnc1)c1cccc(CNS(=O)(=O)c2ccc(Cn3c(C)nc4cnccc43)cc2)c1 | –
> 1000 nM | 12 nM | O=C(O)CCCCO/N=C(\c1cccnc1)c1cccc(CN2CCN(C(=O)C3CSC(c4cccnc4)N3)CC2)c1 (stereo not given) | –
450 nM | 1.2 nM | CCOC(=O)CCCCO/N=C(\c1cccnc1)c1cccc(NC(=O)c2ccn3c2CSC3c2cccnc2)c1 (stereo not given) | –
> 1000 nM | 1.8 nM | Cc1nc2cnccc2n1Cc1ccc(S(=O)(=O)NCc2cccc(/C(=N\OCCCCC(=O)O)c3cccnc3)c2)cc1 | –
560 nM | > 1000 nM | CCOC(=O)CCCCO/N=C(/c1cccnc1)c1ccccc1C(=O)N1CCN(C(=O)C2CSC(c3cccnc3)N2)CC1 (stereo not given) | –

SMILES | IC50 (Oryctolagus cuniculus) | IC50 (Thromboxane-A synthase) | ED50 (Mus musculus)
CCOC(=O)CCCCO/N=C(/c1cccnc1)c1cccc(C(=O)N2CCc3c(sc4c3C(c3ccccc3Cl)=NC(C)c3nnc(C)n3-4)C2)c1 (stereo not given) | 60 nM | 65 nM | 2.3 mg/kg
CCOC(=O)CCCCO/N=C(\c1ccc(C(=O)N2CCc3c(sc4c3C(c3ccccc3Cl)=NC(C)c3nnc(C)n3-4)C2)cc1)c1cccnc1 (stereo not given) | 100 nM | 72 nM | 0.5 mg/kg
Cc1nnc2n1-c1sc3c(c1C(c1ccccc1Cl)=N[C@H]2C)CCN(C(=O)C1CC1)C3 (racemic) | 360 nM | – | –
